From article PMC8073907, “Peptide targeting of lysophosphatidylinositol-sensing GPR55 for osteoclastogenesis tuning” (Cell Communication and Signaling : CCS, 2021)

Columns and labels:
[1] = tested on: RAW264.7 cells; assay: RANKL-induced transcription of osteoclastogenesis markers in RAW264.7 cells (real-time PCR); format: cell-based, murine
Procedure: (§1) Total RNA was extracted using RNeasy isolation kits, cDNAs were obtained using QuantiTect Reverse Transcription kits, and real-time PCRs were performed with QuantiTect SYBR Green PCR kits (all from Qiagen, Hilden, Germany), according to the manufacturer instructions. The primers used for the real-time PCRs and their annealing temperatures are listed in the Additional file 1: Table S1. Human hypoxanthine phosphoribosyltransferase 1 (HPRT1) or murine β2-microglobulin were followed as housekeeping genes. The real-time PCR programme consisted of an initial 15 min at 95 °C, and then 45 cycles as follows: 94 °C for 15 s, annealing temperature of each primer for 30 s, and 72 °C for 30 s. The real-time PCR machine used was a LightCycler 480 Instrument II (Roche, Indianapolis, IN, USA).
For transient interference of Gpr55, RAW264.7 cells were plated at 6 × 10^5 cells/well in six-well plates in growth medium without antibiotics. Twenty-four hours later, the cells were transfected with 250 pmol/well non-targeting small-interfering (si)RNAs (si-NT; siGENOME siRNA Pool #2; D-001206-14; Dharmacon, Chicago, IL, USA) or Gpr55-specific siRNAs (si-GPR55; siGENOME mouse GPR55 SMART pool; M-043590-01; Dharmacon) using Lipofectamine LTX and Plus Reagent, according to the manufacturer instructions. Twenty-four hours later, the cells were plated for the different assays or for RNA extraction. The efficiency of interference was monitored by real-time PCR after 72 h of interference, using the primers listed in the Additional file 1: Table S1. β2-microglobulin was followed as a housekeeping gene.
(§2) For the osteoclastogenesis in-vitro assay, RAW264.7 cells were plated in differentiation medium (α-MEM with 10% heat-inactivated FBS, 2 mM L-glutamine, 100 U/mL penicillin, and 100 ug/mL streptomycin) at a density of 5 × 10^3 cells/well in 24-well plates on coverslips for morphological analysis, or at 2 × 10^4 cells/well in six-well plates for RNA extraction. Twenty-four hours later and every 48 h, the medium was replaced and the cells were treated with 15–30 ng/mL RANKL with DMSO and/or PBS as carriers, or with GPR55 antagonists/ agonists (0.5 µM ML-191, 30 µM O1918, 0.5 µM CBD, 0.5 μM CID16020046 1 µM soybean LPI, 1 μM ML-184), or with the peptides (150 nM peptide-P1; or the irrelevant peptide, Irr_P). Twenty-four hours after the last addition, the cells were fixed with 4% paraformaldehyde for morphological analyses or harvested for RNA extraction (see above).

[2] = tested on: ssGPR55 wild-type; assay: GPR55-internalisation assay, wild-type (FACS); format: cell-based, human; settings: 10 µM soybean LPI
Procedure: HeLa cells were plated at 1.5 × 10^5 cells/well in six-well plates in their growth medium without antibiotics. Twenty-four hours later, the cells were transfected with 2.5 µg/well pcDNA3.1, or the mutants ssGPR55-K80A, ssGPR55-Q87A, or 1.25 µg/well (complemented with 1.25 µg/well empty vector) ssGPR55, using Lipofectamine 2000, according to the manufacturer instructions. The different cDNA amounts were necessary to reach equivalent plasma-membrane expression of the receptors, as the mutants were expressed at lower levels, as verified by FACS analyses, and in line with previous reports. […]
For the GPR55-internalisation assay, after stimulation, the HeLa cells were washed twice with cold HBSS^++, stained while adhered with the monoclonal anti-HA antibody (1:1000) in PBS plus 3% BSA for 1 h on ice, washed three times with cold PBS, incubated with the Alexa488-tagged anti-mouse antibody (1:800) in PBS plus 3% BSA for 45 min on ice. […] The collected cells were centrifuged at 300×g, suspended in PBS plus 3% BSA, and analysed by FACS.

[3] = tested on: Gpr55 mRNA in RAW264.7 cells; assay: Modulation of Gpr55 mRNA levels by receptor ligands in RANKL-treated RAW264.7 cells; format: cell-based, murine; settings: 72 h; 0.5 μM ML-191, 0.5 μM CBD, 1 μM soybean LPI; versus RANKL alone
Procedure: as §1, §2

lysophosphatidylinositol [LPI]
further stimulation of RANKL-induced Trap transcription ([1]; 1 µM soybean LPI, 24 h): 0.2 -fold | increase in RANKL-induced Cathepsin-k mRNA ([1]; 1 µM soybean LPI, 24 h): 1.4 -fold | further stimulation of RANKL-induced Ctr transcription ([1]; 1 µM soybean LPI, 48 h): 2.4 -fold | further stimulation of RANKL-induced Nfatc1 transcription ([1]; 1 µM soybean LPI, 48 h): 1.1 -fold | further stimulation of RANKL-induced Trap transcription ([1]; 1 µM soybean LPI, 48 h): 0.7 -fold | increase in RANKL-induced Cathepsin-k mRNA ([1]; 1 µM soybean LPI, 48 h): 1.2 -fold | further stimulation of RANKL-induced Ctr transcription ([1]; 1 µM soybean LPI, 72 h): 1.6 -fold | further stimulation of RANKL-induced Trap transcription ([1]; 1 µM soybean LPI, 72 h): 0.7 -fold | modulation of RANKL-induced Cathepsin-k transcription ([1]; 1 µM soybean LPI, 72 h): no modulation | effect on Mmp-9 transcription ([1]; 1 µM soybean LPI, any of the times analysed): no effects on Mmp-9 transcription | effect on osteoclastogenesis marker transcription after washout ([1]; LPI washout after the initial 24 h, data not shown): did not produce any significant effects | RANKL-induced transcription of Ctr, si-NT versus si-GPR55 cells ([1]; RANKL 15 ng/mL, 72 h, 1 µM soybean LPI or 1 µM ML-184): similarly increased RANKL-induced transcription of Ctr only in precursor cells treated with non-targeting siRNAs, and not in those silenced for GPR55 | time to plateau of LPI-induced internalisation ([2]; overexpressed ssGPR55 in HeLa cells): 10 min | reduction of cell-surface level of receptor ([2]; ssGPR55 wild-type, HeLa, 15 min, three independent experiments): 30% | further enhancement of RANKL-stimulated Gpr55 mRNA levels [3]: 0.5 -fold
